Here are results for four compounds from patent US20180338897A1, “ORAL COMPOSITIONS FOR REDUCING DENTAL STAINS” (New York University, priority 2017, published 2018).

Series [1] is described as follows: Destaining of stained beads and sand white quartz (Example 3). The conditions noted are these: for Relative destaining effectiveness: comparison of C11, EDTA and Deferiprone. As for the experimental part:
Tannic acid and iron chloride solutions were prepared as in Example 2. In order to simulate a tooth like structure, boiling beads made from a synthetic silicate (Techniservice) and white quartz sand were used. Four vials were prepared with the following solutions and solids (Table 3).
0.1 mL of the tannic acid and iron(III) chloride were pipetted into each vial. They were mixed on a vortex for 10 seconds. Then, 9.8 mL of 0.1 M, pH 7.4 MOPS was added to each vial to adjust the pH to a neutral level. MOPS was used to mimic the pH of saliva. The contents were mixed again. […] The vials were left to stand for a week at room temperature. The following table (Table 4) summarizes the components added to the tooth-like solids.
The solids in the vials were washed with approximately 10 mL of MOPS. This step was to simulate a wash of the “tooth” like structure with a “saliva” like buffer. The vials were left for a week to allow time for unstained areas of the beads to stain.
After the structures were stained, experiments were carried out to test if the stains could be removed. Approximately 5 mL of C11 (1-(11′-Carboxydecyl)-3-Hydroxy-2-Methyl-4-Pyridinone) solution was pipetted into Vials #1 and #3. Vials #2 and #4 served as controls. The contents of the vials were then mixed by vortexing. The vials were left to de-stain for a week. After a week, the liquid was drained from the vials and a fresh 5 mL of C11 was pipetted. Vials were left to de-stain for another week.
EDTA was prepared as follows. 100 mM of EDTA was made by adding 9.164 g to 250 mL of deionized water. The solution was stirred for 10 minutes, then placed on a heater.
Three new vials were filled with 2.2346 g, 2.0195 g, 2.2600 g of beads followed by the salt (0.1 mL), then the tannic acid (0.1 mL), and finally the MOPS. […] Three other vials were filled with 2.115 g, 2.009 g, 2.115 g of sand white quartz and the solutions were added in sequence. […] The solutions were left to continue to stain for a week. After a week, all the vials were rinsed with 10 mL of MOPS. Supernatant was removed by using filter paper. 10 mL of MOPS was then added and the contents were stirred then left to sit for a week.
1 mL of the EDTA was pipetted into each vial. The resulting concentration was 0.01 M of EDTA in each vial. Vials were then mixed to ensure proper contact with the MOPS and EDTA molecules. Vials were left to sit for a week.
Two more pairs of vials (4th and 5th pairs) were prepared—one with the beads and the other with the sand. MOPS solution was added, but not EDTA. […] Two more pairs of vials (6th and 7th pairs) were prepared, again, one with beads and the other with sand. The purpose of these controls was to test if the destaining process could be accelerated. The EDTA concentration was increased from 0.01 M to 0.1 M and 10 mL of it was subsequently added to the vials along with 10 mL of MOPS.
(§1) 0.1 M of Deferiprone solution was made by mixing 1.3957 g and 100 mL of distilled water into a volumetric flask. […] The tables below (Table 5 and Table 6) summarizes the contents of the vials used in this part of the experiment.
These vials were left to stand for a week. After the week the vials were rinsed with distilled water until the liquid that the beads/sand were suspended in were clear.
The next set of experiments was carried out to determine how quickly the compositions were able to remove the stains.
Beads and sand solutions were rinsed with 10 mL of distilled water. […] The solutions were prepared as follows: (Table 11).

The subject of series [2] is yeast. In words: Yeast growth curve in liquid YPD media, absorbance at 400 nm. The format is cell-based, Saccharomyces cerevisiae. The following applies: for Final absorbance / Initial absorbance: 400 nm; for Final absorbance: after 24 hr; for Initial absorbance: start of growth curve; for Effect on yeast growth: growth curve over 24 hr, FIG. 8. On the procedure: (§2) The following materials were used: peptone, dextrose/glucose, marmite/yeast extract, agar, 0.1 M EDTA in MOPS solution, 0.1 M C-2 in MOPS solution, 0.1 M C-6 in MOPS solution, and […] Deferiprone in MOPS solution, and water.
(§3) The yeast culture was prepared by adding dry baker's yeast to warm water and streaked on the media plates. Cultures were allowed to grow for 16-24 hours.
The growth curve experiment were carried out by measuring the inhibition of yeast culture in the presence of EDTA, C-2, C-6, and Deferiprone over time via absorbance at 400 nm (see FIG. 8).
The growth curve was used to measure the rate of growth of yeast over an 8 hour period with a final measurement after 24 hours. No growth is seen in the presence of EDTA. C-2, C-6, and Deferiprone show different levels of effectiveness (see FIG. 8).

Series [3] in a line: Destaining of boiling beads stained with tannic acid and iron(III) chloride (Example 2). The conditions noted are these: for Destaining: Experiment #1, 10 mL 0.1M solution on stained boiling beads; for Removal of stains (conclusion): Experiments #1 and #2, comparison with EDTA. As for the experimental part:
To simulate the effects of staining caused by coffee and tea, tannic acid and iron(III) chloride solutions were prepared.
To prepare the tannic acid solution, solid tannic acid was used. 0.1M FeCl3.6H2O and added to 100 mL of distilled water. 0.1 M solutions of MOPS buffer was prepared. Then 0.1M solutions of EDTA in distilled water, C-2 in MOPS, C-6 in MOPS, and deferiprone in MOPS, were prepared. For a tooth like structure, boiling beads made from synthetic silicate were used.
Methods were as follows: Experiment #1: Comparison of EDTA, C-2, and deferiprone destaining: The procedure was broken down into 2 phases: staining and destaining. In the staining phase, 7 beads were added to each of the 12 vials. 3 vials were labeled control, 3 were labeled EDTA, 3 were labeled C-2, and 3 were labeled Deferiprone. 0.1 mL of the tannic acid and iron(III) chloride were pipetted onto the boiling beads in the vials. After mixing, 9.8 mL of 0.1 M, pH 7 MOPS was added. The vials were left to stand for a week at room temperature to complete the staining. For the destaining phase, the liquid in each vial was discarded and the beads were rinsed with distilled water 3 times. Then the solutions were added to the vials according to Table 1, swirled and left for the destaining phase.
Experiment #2: Comparison of deferiprone, C-2, and C-6 destaining: The same procedure was followed for Experiment 2 except EDTA was replaced with C-6 solution.

For series [4], the system named is yeast (Saccharomyces cerevisiae). As to the kind of experiment: Inhibition of yeast growth when prepared with dextrose-agar plates. The format is cell-based. The text has this: The compounds of the present disclosure can reduce stains from the surfaces of teeth. The present compounds may also have anti-microbial activity. […] Thus, the compounds and compositions of the present disclosure may be used for reduction of teeth stains and/or as antimicrobials.

Series [5] deals with yeast. In words: Disk diffusion on YPD agar plates with yeast cultures. The format is cell-based, Saccharomyces cerevisiae. The conditions noted are these: plates incubated at 30° C. On the procedure: as §2
Plate media was prepared containing 2% dextrose, 2% peptone, 0.36 g of yeast extract, and 1.5% agar in 1 L of water. The mixture was heated to dissolve the ingredients, and then autoclaved. 10 mL of the media was added to petri dishes to prepare plates.
as §3
Disks to which C-2, C-6, EDTA, or Deferiprone were added were added to petri dishes containing yeast cultures. The plates were incubated at 30° C. The effect on yeast growth was visualized and measured over time. The zone sizes were measured to the nearest millimeter using a ruler or caliper, including the diameter of the disk in the measurement. The measurements were rounded up to the nearest millimeter.
(Agar diffusion results depend on both activity and mobility in agar.)

A short description of series [6]: Dissolution of deferiprone in distilled water. The format is physicochemical. The following applies: 0.1 M in distilled water; room temperature; magnetic bar. As for the experimental part:
as §1

On to `O=C(O)CN(CCN(CC(=O)O)CC(=O)O)CC(=O)O` [EDTA, ethylenediaminetetraacetic acid], for which the Destaining of beads entry in series [1] (0.01 M EDTA in MOPS, beads, after a week) is “partially destained”. The “Destaining of sand (colour of solution)” value in series [1] (0.01 M EDTA in MOPS, white quartz sand, after a week) is reported as “solutions were clear”. Besides, the “Bleaching of beads and sand” value in series [1] (EDTA 0.01 M to 0.1 M, beads and sand, after over a month) was “most of the beads and sand were bleached”. The Relative destaining effectiveness entry in series [1] is reported as “followed by EDTA”. For the same compound, in the series with yeast [2], the Final absorbance stood at 0.481, the Initial absorbance is recorded as 0.375 and the “Effect on yeast growth” value is “No growth”. For the same compound, in series [3], the Destaining result was “slight difference after 15 minutes”.
For the compound `Cc1c(O)c(=O)ccn1CC(=O)O` [C-2, 1-Carboxymethyl-3-Hydroxy-2-Methyl-Pyrid-4-one], in series [4] (0.001 M), the Growth of yeast result is listed as “inhibited the growth of yeast”. In addition, in the series on yeast [2], the Final absorbance was 1.761; the “Effect on yeast growth” value is “effective, although the effect was less than EDTA and Deferiprone”. In series [3], the Destaining entry is reported as “Destaining was immediately noted”; the “Removal of stains (conclusion)” value was “effective in removal of stains and act to remove stains faster than EDTA”. In addition, in the series on yeast [5], the “Zone diameter (including the disk)” value came out at 1.55 cm.
For `Cc1c(O)c(=O)ccn1CCCCCC(=O)O` [C-6, 1-(6′-Carboxypentyl)-3-Hydroxy-2-Methyl-4-Pyridinone], the Growth of yeast result in series [4] (0.001 M) is given as “inhibited the growth of yeast”. Moreover, in the series with yeast [2], the Final absorbance is 1.840; the “Effect on yeast growth” value was “effective, although the effect was less than EDTA and Deferiprone”. Further, the “Removal of stains (conclusion)” value in series [3] was “effective in removal of stains and act to remove stains faster than EDTA”. In the series on yeast [5], the “Zone diameter (including the disk)” value came to 1.45 cm.
For the compound `Cc1c(O)c(=O)ccn1C` [Deferiprone, 3-hydroxy-1,2-dimethylpyridin-4(1H)-one], the Growth of yeast entry in series [4] (0.003 M) is reported as “inhibited the growth of yeast”. Moreover, the Relative destaining effectiveness entry in series [1] is reported as “most effective”. In series [1] (speed experiment, all Deferiprone dilutions (10 mL, 1 mL, 0.1 mL, 0.01 mL of 0.1M)), the “Duration of effective destaining” value is “For about an hour the destaining for all the vials except the controls continued to be effective”. In series [1] (speed experiment, vials A3 and B3, 10 mL of 0.1M Deferiprone), the “Stain removal immediately after addition” value is on record as “the stains were removed”. The “Stained removed?” value in series [1] (vial A2: beads, 10 mL of 0.1M deferiprone, after a week) was “Yes”; in series [1] (vial A3: beads, 1 mL of 0.1M deferiprone & 9 mL of distilled water, after a week), “Yes”; in series [1] (vial B2: sand white quartz, 10 mL of 0.1M deferiprone, after a week), “Yes”; in series [1] (vial B3: sand white quartz, 1 mL of 0.1M deferiprone & 9 mL of distilled water, after a week), “Yes”. Further, the “Discoloration of the solution after addition” value in series [1] (vials A2 and B2 (beads, sand), 10 mL of 0.1M deferiprone) is reported as “immediate discoloration”; in series [1] (vials A3 and B3 (beads, sand), 1 mL of 0.1M deferiprone & 9 mL of distilled water), “relatively slower discoloration”. The Final absorbance in the series with yeast [2] is reported as 0.762. The Initial absorbance in the series on yeast [2] was determined as 0.389. Further, the Destaining result in series [3] was “Destaining was immediately noted”. Also, in series [3], the “Removal of stains (conclusion)” value is “effective in removal of stains and act to remove stains faster than EDTA”. In series [6], the Solubility entry is reported as “slow solubility was observed”.
